Reference: patent US11814448B2, “Carrier peptide fragment and use thereof” (TOAGOSEI CO., LTD., priority 2020, dated 2023)
FAM = FAM fluorescent dye

System: HeLa cells
Experiment: Evaluation of cell membrane permeability by flow cytometry (FAM fluorescence) in HeLa cells
Format: cell-based, human
Settings: 20-hour incubation; for MFI (mean fluorescent intensity): 10 μM in culture medium, 0.5% DMSO, FL2 fluorescence detector; for introduction of the fluorescent dye (FAM) into the cytoplasm, from the histogram shift (FIG. 1), compared with Example 3 (FAM only): histogram of fluorescent intensity vs cell count
Method: The cell membrane permeability of sample 1 and sample 2 was evaluated using HeLa cells (an established cell line derived from human cervical cancer cells) as the eukaryotic cells.
HeLa cells were cultured on DMEM (Dulbecco's modified Eagle's medium (Cat. No. 043-30085, from FUJIFILM Wako Pure Chemical Corporation)) containing 10% FBS (fetal bovine serum), which is a general culture medium.
The HeLa cells attached to the culture plate were washed with PBS, a 0.25% trypsin/EDTA solution was then added, and incubation was carried out for 3 minutes at 37° C. After this incubation, the aforementioned DMEM containing 10% FBS was added and the trypsin was inactivated, and the cells were then sedimented by carrying out centrifugal separation for 5 minutes at 150×g. The supernatant produced by the centrifugal separation was removed, and the aforementioned DMEM containing 10% FBS was added to the sediment (cell pellet) to prepare a cell suspension containing approximately 1×10^5 cells/mL. The cells were seeded (approximately 2×10^5 cells/well) by the addition of 2 mL of this cell suspension to the wells of a commercial 6-well plate ((Iwaki microplate commercially available from AGC techno glass Co., Ltd). The cells were attached to the well bottom by culture for 3 hours at 37° C. under the condition of 5% CO2.
The 2 mM sample solution 1 was then diluted with the aforementioned DMEM containing 10% FBS to prepare a sample solution 1 in which the sample 1 concentration was 20 μM. After the aforementioned 3-hour culture, 1 mL of the culture supernatant was removed from the wells, followed by the addition to the wells of 1 mL of the 20 μM sample solution 1 (i.e., the concentration of sample 1 in the culture medium in the wells was brought to 10 μM and the DMSO concentration was brought to 0.5%). The cells were incubated for 20 hours at 37° C. under the condition of 5% CO2. After this 20-hour incubation, the culture supernatant was removed from the wells and the cells in the wells were washed twice with 1 mL PBS. 200 μL of 0.25% trypsin/EDTA was then added to the wells and incubation was carried out for 3 minutes at 37° C. After this incubation, the trypsin was inactivated by the addition of 400 μL of the aforementioned DMEM containing 10% FBS to the wells, and the cells were subsequently recovered by transferring the cell suspensions in the wells to a tube. The wells were then washed by the further addition of 600 μL PBS to the wells. The cells that had remained in the wells were recovered to the tube by transferring the PBS in the wells to the tube. Centrifugal separation was run on this tube for 5 minutes using conditions of 4° C. and 210×g. After the centrifugal separation, the supernatant was removed, the sediment (cell pellet) was suspended (washed) with 1 mL of PBS, and centrifugal separation was carried out using the same conditions as before. After this procedure has been repeated twice, the supernatant was removed to obtain cells (cell pellet) that had been cultured on a sample 1-containing culture medium.
The cell permeability of sample 1 was analyzed using the resulting cells (cell pellet) and a flow cytometer. An On-Chip Flow Cytometer (On-chip Biotechnologies Co., Ltd.) was used for the flow cytometer.
For this analysis, the cell pellet obtained as described above was suspended in 50 μL PBS. To this suspension was added 50 μL of 2×Sample Buffer for use with the indicated flow cytometer to prepare a cell suspension for submission to analysis.
Gating was performed using this flow cytometer based on forward scatter (FSC) and side scatter (SSC); the gating was set for the cell population that was the target of the analysis; and the fluorescent intensity was measured for the cell population within this gating. The analysis was performed so this cell population reached approximately 10,000. […]

Substance	MFI (mean fluorescent intensity)	introduction of the fluorescent dye (FAM) into the cytoplasm, from the histogram shift (FIG. 1), compared with Example 3 (FAM only) (10 μM)	efficiency (cell membrane permeability) compared using the MFI, Example 1 versus Example 2 (10 μM, ratio of MFI values of Table 3)
5(6)-carboxyfluorescein [Example 3]	5.9	–	–
FAM-KKRTLRKNDRKKR-CONH2 ({FAM}-KKRTLRKNDRKKR-NH2) [Example 2]	10.5	more efficiently introduced	–
FAM-VVRSLVKVVRSLVK-CONH2 ({FAM}-VVRSLVKVVRSLVK-NH2) [Example 1]	690	more efficiently introduced	approximately 65.7 times
